Experimental data taken from patent US20070128217A1 (priority 2003, published 2007).

Key:
[1] = system: antibodies in sera from SARS patients (sera 1a, 1b, 2, 6, 37, 62, London, SARS-yellow, SARS-green); format: binding, human; parameters: Binding of serum 6 to linear peptides of protein X1 of SARS-CoV Urbani / Binding of serum 37 to linear peptides of protein X1 of SARS-CoV Urbani / Binding of serum 6 to looped/cyclic peptide (PEPSCAN-ELISA) / Binding of serum 37 to looped/cyclic peptide (PEPSCAN-ELISA) / Binding of serum 37 to looped/cyclic peptides of protein X1 of SARS-CoV Urbani / Binding of serum 6 to linear peptides of protein X2 / Binding of serum 37 to linear peptides of protein X2 / Binding of serum 37 to looped/cyclic peptides of protein X2 of SARS-CoV Urbani / Binding of serum 6 to linear peptides of protein M of SARS-CoV Urbani / Binding of serum 37 to linear peptides of protein M of SARS-CoV Urbani / Binding of serum 6 to looped/cyclic peptides of protein M of SARS-CoV Urbani / Binding of serum 37 to looped/cyclic peptides of protein M of SARS-CoV Urbani / Binding of serum 6 to linear peptides of protein X3 of SARS-CoV Urbani / Binding of serum 37 to linear peptides of protein X3 of SARS-CoV Urbani / Binding of serum 37 to looped/cyclic peptides of protein X3 of SARS-CoV Urbani / Binding of serum 6 to linear peptides of protein X4 of SARS-CoV Urbani / Binding of serum 37 to linear peptides of protein X4 of SARS-CoV Urbani / Binding of serum 37 to looped/cyclic peptides of protein X4 of SARS-CoV Urbani / Binding of serum 6 to linear peptides of protein X5 of SARS-CoV Urbani / Binding of serum 37 to linear peptides of protein X5 of SARS-CoV Urbani / Binding of serum 37 to looped/cyclic peptides of protein X5 of SARS-CoV Urbani / Binding of serum 6 to linear peptides of protein N of SARS-CoV Urbani / Binding of serum 37 to linear peptides of protein N of SARS-CoV Urbani / Binding of serum 6 to linear peptide (PEPSCAN-ELISA) / Binding of serum 1a to looped/cyclic peptides of protein N of SARS-CoV Urbani / Binding of serum 1b to looped/cyclic peptides of protein N of SARS-CoV Urbani / Binding of serum 2 to looped/cyclic peptides of protein N of SARS-CoV Urbani / Binding of serum 6 to looped/cyclic peptides of protein N of SARS-CoV Urbani / Binding of serum 37 to looped/cyclic peptides of protein N of SARS-CoV Urbani / Binding of serum 62 to looped/cyclic peptides of protein N of SARS-CoV Urbani / Binding of serum London to looped/cyclic peptides of protein N of SARS-CoV Urbani / Binding of serum SARS-green to looped/cyclic peptides of protein N of SARS-CoV Urbani: unit not given here
[2] = system: control sera (pooled serum of ten healthy LUMC hospital workers; commercial negative donor pooled serum from the Dutch bloodbank); format: binding, human
[3] = system: rabbit serum obtained by immunizing a rabbit with the SARS-CoV strain Frankfurt 1; format: binding; parameters: Binding of a rabbit serum to linear peptides / Binding of a rabbit serum to looped peptides / Rabbit serum linear peptides / Rabbit serum looped peptides / Binding of a rabbit serum to linear peptides of protein N of SARS-CoV Urbani (Rabbit serum linear peptides) / Binding of a rabbit serum to looped/cyclic peptides of protein N of SARS-CoV Urbani (Rabbit serum looped peptides): unit not given here

AFVVFLLVTLAILTA
0.2: Binding of serum SARS-yellow to linear peptides of protein E of SARS-CoV Urbani [1]
0.8: Binding of serum 1a to linear peptides of protein E of SARS-CoV Urbani [1] | Binding of Control Serum Blood-Bank to Looped peptides [2]
0.4: Binding of serum 1b to looped/cyclic peptides of protein E of SARS-CoV Urbani [1] | Binding of serum 2 to linear peptides of protein E of SARS-CoV Urbani [1] | Binding of serum 2 to looped/cyclic peptides of protein E of SARS-CoV Urbani [1] | Binding of serum London to looped/cyclic peptides of protein E of SARS-CoV Urbani [1] | Binding of serum SARS-green to linear peptides of protein E of SARS-CoV Urbani [1] | Binding of Control serum LUMC to linear peptides [2]
0.5: Binding of serum 1a to looped/cyclic peptides of protein E of SARS-CoV Urbani [1] | Binding of serum 6 to looped/cyclic peptides of protein E of SARS-CoV Urbani [1] | Binding of serum 37 to looped/cyclic peptides of protein E of SARS-CoV Urbani [1] | Binding of serum SARS-green to looped/cyclic peptides of protein E of SARS-CoV Urbani [1] | Binding of serum SARS-yellow to looped/cyclic peptides of protein E of SARS-CoV Urbani [1] | Binding of Control serum Blood-bank to linear peptides [2] | Binding of Control serum LUMC to looped peptides [2]
0.6: Binding of serum 1b to linear peptides of protein E of SARS-CoV Urbani [1] | Binding of serum 6 to linear peptides of protein E of SARS-CoV Urbani [1] | Binding of serum 62 to looped/cyclic peptides of protein E of SARS-CoV Urbani [1] | Binding of serum London to linear peptides of protein E of SARS-CoV Urbani [1]
0.7: Binding of serum 37 to linear peptides of protein E of SARS-CoV Urbani [1] | Binding of serum 62 to linear peptides of protein E of SARS-CoV Urbani [1] | Binding of a rabbit serum to linear peptides [3]
0.1: Binding of a rabbit serum to looped peptides [3]

AIWNLDVIISSIVRQ
0.8: Binding of serum 1a to linear peptides of protein X3 of SARS-CoV Urbani [1] | Binding of Control Serum Blood-Bank to Looped peptides of the protein X3 of SARS-CoV Urbani [2]
0.5: Binding of serum 1a to looped/cyclic peptides of protein X3 of SARS-CoV Urbani [1] | Binding of serum 1b to looped/cyclic peptides of protein X3 of SARS-CoV Urbani [1] | Binding of serum 6 to linear peptides of protein X3 of SARS-CoV Urbani [1] | Binding of serum 62 to looped/cyclic peptides of protein X3 of SARS-CoV Urbani [1]
0.2: Binding of serum London to looped/cyclic peptides of protein X3 of SARS-CoV Urbani [1]
0.6: Binding of serum 2 to linear peptides of protein X3 of SARS-CoV Urbani [1] | Binding of serum 37 to linear peptides of protein X3 of SARS-CoV Urbani [1] | Binding of serum 37 to looped/cyclic peptides of protein X3 of SARS-CoV Urbani [1] | Binding of serum 62 to linear peptides of protein X3 of SARS-CoV Urbani [1] | Binding of serum London to linear peptides of protein X3 of SARS-CoV Urbani [1] | Binding of serum SARS-yellow to looped/cyclic peptides of protein X3 of SARS-CoV Urbani [1]
0.7: Binding of Control serum Blood-bank to linear peptides of the protein X3 of SARS-CoV Urbani [2] | Binding of Control serum LUMC to linear peptides of the protein X3 of SARS-CoV Urbani [2] | Binding of Control serum LUMC to looped peptides of the protein X3 of SARS-CoV Urbani [2]
0.4: Binding of serum 1b to linear peptides of protein X3 of SARS-CoV Urbani [1] | Binding of serum 2 to looped/cyclic peptides of protein X3 of SARS-CoV Urbani [1] | Binding of serum 6 to looped/cyclic peptides of protein X3 of SARS-CoV Urbani [1] | Binding of serum SARS-green to looped/cyclic peptides of protein X3 of SARS-CoV Urbani [1] | Rabbit serum looped peptides [3]
0.3: Binding of serum SARS-green to linear peptides of protein X3 of SARS-CoV Urbani [1] | Binding of serum SARS-yellow to linear peptides of protein X3 of SARS-CoV Urbani [1] | Rabbit serum linear peptides [3]

ALRLCAYCCNIVNVS
0.7: Binding of serum 2 to looped/cyclic peptides of protein E of SARS-CoV Urbani [1] | Binding of serum 6 to linear peptides of protein E of SARS-CoV Urbani [1] | Binding of serum 6 to looped/cyclic peptides of protein E of SARS-CoV Urbani [1] | Binding of serum 37 to looped/cyclic peptides of protein E of SARS-CoV Urbani [1] | Binding of serum 62 to linear peptides of protein E of SARS-CoV Urbani [1] | Binding of serum SARS-yellow to looped/cyclic peptides of protein E of SARS-CoV Urbani [1] | Binding of a rabbit serum to linear peptides [3]
0.8: Binding of serum 1a to looped/cyclic peptides of protein E of SARS-CoV Urbani [1] | Binding of serum 1b to linear peptides of protein E of SARS-CoV Urbani [1] | Binding of serum 1b to looped/cyclic peptides of protein E of SARS-CoV Urbani [1] | Binding of serum 37 to linear peptides of protein E of SARS-CoV Urbani [1] | Binding of serum 62 to looped/cyclic peptides of protein E of SARS-CoV Urbani [1] | Binding of Control serum Blood-bank to linear peptides [2] | Binding of Control serum LUMC to looped peptides [2]
0.5: Binding of serum 2 to linear peptides of protein E of SARS-CoV Urbani [1] | Binding of serum London to linear peptides of protein E of SARS-CoV Urbani [1] | Binding of serum SARS-green to linear peptides of protein E of SARS-CoV Urbani [1] | Binding of Control serum LUMC to linear peptides [2]
1.1: Binding of Control Serum Blood-Bank to Looped peptides [2]
0.2: Binding of serum SARS-yellow to linear peptides of protein E of SARS-CoV Urbani [1]
0.4: Binding of a rabbit serum to looped peptides [3]
0.9: Binding of serum 1a to linear peptides of protein E of SARS-CoV Urbani [1]
0.6: Binding of serum London to looped/cyclic peptides of protein E of SARS-CoV Urbani [1] | Binding of serum SARS-green to looped/cyclic peptides of protein E of SARS-CoV Urbani [1]

EETGTLIVNSVLLFL
0.0: Binding of a rabbit serum to looped peptides [3]
0.6: Binding of serum 6 to linear peptides of protein E of SARS-CoV Urbani [1] | Binding of Control Serum Blood-Bank to Looped peptides [2] | Binding of Control serum LUMC to linear peptides [2]
0.8: Binding of serum 1a to linear peptides of protein E of SARS-CoV Urbani [1] | Binding of serum 37 to linear peptides of protein E of SARS-CoV Urbani [1]
0.5: Binding of serum London to linear peptides of protein E of SARS-CoV Urbani [1] | Binding of serum SARS-green to linear peptides of protein E of SARS-CoV Urbani [1] | Binding of serum SARS-yellow to looped/cyclic peptides of protein E of SARS-CoV Urbani [1] | Binding of a rabbit serum to linear peptides [3]
0.3: Binding of serum 1b to looped/cyclic peptides of protein E of SARS-CoV Urbani [1] | Binding of serum 2 to looped/cyclic peptides of protein E of SARS-CoV Urbani [1] | Binding of serum SARS-green to looped/cyclic peptides of protein E of SARS-CoV Urbani [1]
0.7: Binding of serum 1b to linear peptides of protein E of SARS-CoV Urbani [1] | Binding of serum 62 to linear peptides of protein E of SARS-CoV Urbani [1] | Binding of serum 62 to looped/cyclic peptides of protein E of SARS-CoV Urbani [1] | Binding of Control serum Blood-bank to linear peptides [2]
0.2: Binding of serum SARS-yellow to linear peptides of protein E of SARS-CoV Urbani [1]
0.4: Binding of serum 1a to looped/cyclic peptides of protein E of SARS-CoV Urbani [1] | Binding of serum 2 to linear peptides of protein E of SARS-CoV Urbani [1] | Binding of serum 6 to looped/cyclic peptides of protein E of SARS-CoV Urbani [1] | Binding of serum 37 to looped/cyclic peptides of protein E of SARS-CoV Urbani [1] | Binding of serum London to looped/cyclic peptides of protein E of SARS-CoV Urbani [1] | Binding of Control serum LUMC to looped peptides [2]

FLLVTLAILTALRLC
0.1: Binding of Control serum LUMC to looped peptides [2] | Binding of a rabbit serum to linear peptides [3]
0.0: Binding of serum 1b to looped/cyclic peptides of protein E of SARS-CoV Urbani [1] | Binding of a rabbit serum to looped peptides [3]
0.6: Binding of serum 1a to linear peptides of protein E of SARS-CoV Urbani [1] | Binding of serum 2 to linear peptides of protein E of SARS-CoV Urbani [1] | Binding of serum 37 to looped/cyclic peptides of protein E of SARS-CoV Urbani [1] | Binding of serum 62 to looped/cyclic peptides of protein E of SARS-CoV Urbani [1] | Binding of serum London to linear peptides of protein E of SARS-CoV Urbani [1] | Binding of Control serum Blood-bank to linear peptides [2]
1: Binding of serum 6 to looped/cyclic peptides of protein E of SARS-CoV Urbani [1]
1.2: Binding of serum London to looped/cyclic peptides of protein E of SARS-CoV Urbani [1]
0.2: Binding of serum SARS-yellow to linear peptides of protein E of SARS-CoV Urbani [1]
0.3: Binding of serum 1a to looped/cyclic peptides of protein E of SARS-CoV Urbani [1] | Binding of serum 6 to linear peptides of protein E of SARS-CoV Urbani [1] | Binding of serum 37 to linear peptides of protein E of SARS-CoV Urbani [1] | Binding of serum 62 to linear peptides of protein E of SARS-CoV Urbani [1] | Binding of serum SARS-green to looped/cyclic peptides of protein E of SARS-CoV Urbani [1]
0.5: Binding of serum 1b to linear peptides of protein E of SARS-CoV Urbani [1] | Binding of serum 2 to looped/cyclic peptides of protein E of SARS-CoV Urbani [1] | Binding of serum SARS-green to linear peptides of protein E of SARS-CoV Urbani [1] | Binding of serum SARS-yellow to looped/cyclic peptides of protein E of SARS-CoV Urbani [1] | Binding of Control Serum Blood-Bank to Looped peptides [2] | Binding of Control serum LUMC to linear peptides [2]
